pIC50: −log10 of the molar value.
How the values were obtained:
[1] = target: T1, GluR2/GAPDH complex (Homo sapiens, UniProt P42262); experiment: Surface plasmon resonance target engagement assay (competitive GluR2-Venus affinity with GAPDH); conditions: SPR, captured GluR2-VENUS, 100 nM GAPDH peptide, compound top concentration 10 μM; read-out: Potency, GluR2 Binding Affinity (competitive inhibition of GluR2-GAPDH interaction)
T1 construct: host or cells: HEK293 cells stably transfected with GluR2-VENUS (lysate)
T1 sequence (P42262 25-883, species assumed, one chain of several): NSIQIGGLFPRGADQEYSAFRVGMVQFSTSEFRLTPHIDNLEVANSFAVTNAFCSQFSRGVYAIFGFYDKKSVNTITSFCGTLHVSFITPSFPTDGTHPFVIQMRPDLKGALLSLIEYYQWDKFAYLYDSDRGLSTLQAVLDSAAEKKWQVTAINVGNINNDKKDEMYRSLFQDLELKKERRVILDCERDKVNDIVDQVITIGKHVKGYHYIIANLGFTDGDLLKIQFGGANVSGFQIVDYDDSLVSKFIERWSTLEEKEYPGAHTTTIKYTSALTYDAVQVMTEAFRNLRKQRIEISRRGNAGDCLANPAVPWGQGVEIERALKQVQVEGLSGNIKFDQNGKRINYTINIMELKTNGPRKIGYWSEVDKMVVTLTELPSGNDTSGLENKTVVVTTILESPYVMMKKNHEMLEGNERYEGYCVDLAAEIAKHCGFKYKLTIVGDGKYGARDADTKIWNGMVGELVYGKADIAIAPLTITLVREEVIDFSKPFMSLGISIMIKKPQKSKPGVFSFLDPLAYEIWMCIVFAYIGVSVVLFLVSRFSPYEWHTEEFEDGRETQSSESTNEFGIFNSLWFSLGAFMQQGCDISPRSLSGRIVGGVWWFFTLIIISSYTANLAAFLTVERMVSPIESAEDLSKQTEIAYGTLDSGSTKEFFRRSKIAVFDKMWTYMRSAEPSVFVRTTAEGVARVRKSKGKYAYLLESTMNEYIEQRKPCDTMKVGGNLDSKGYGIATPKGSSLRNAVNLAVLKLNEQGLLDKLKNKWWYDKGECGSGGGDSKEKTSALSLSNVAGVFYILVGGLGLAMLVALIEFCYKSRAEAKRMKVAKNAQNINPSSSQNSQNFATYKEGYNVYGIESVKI
Experimental: This is one of the most commonly used techniques to study modulation of protein-protein interactions by small molecule ligands, providing real-time measurement of binding affinities and association/dissociation kinetics of complexes (compound/protein) in a label-free environment. The ability of our lead compound to disrupt the interaction of GluR2/GAPDH complex was measured by the binding affinity. Compounds were analyzed for competitive GluR2-Venus protein affinity (with GAPDH recombinant protein) using a Reichert 2SPR system. The surface was first charged with nickel (500 μM NiCl2 in HBS-P buffer for 300 s at a flow rate of 5 μL/min). The dextran surface was then activated with a 1:1 mixture of N-ethyl-N-dimethylaminopropylcarbodiimide (EDC) and N-hydroxysuccinimide (NHS) on line for final concentrations of EDC and NHS of 37.5 mg/mL and 5.8 mg/mL, respectively, for 420 s at a flow rate of 25 μL/min. Anti-VENUS antibody was first immobilized by capture onto a 500 KDa CM Dextran sensor chip (Reichert), proceeded by activation of the carboxymethylated dextran surface for mild amine coupling, followed by a final blocking injection of 1 M ethanolamine, pH 8.5. GluR2-VENUS (lysate of HEK293 cells stably transfected with GluR2-VENUS) was then captured for 900 s at a flow rate of 25 μL/min followed by a final blocking injection of 2% BSA, for 300 s at a flow rate of 5 μL/min.
The surface plasmon resonance affinity assay was carried out in a PBS buffer consisting of 0.05% Tween 20. For affinity measurements, compound solutions were prepared using ten three-fold serial dilutions in running buffer from a 10 μM top concentration (prepared from DMSO stocks) along with a zero (running buffer) control, mixed with 100 nM GAPDH peptide (Sigma Aldrich). A flow rate of 30 μl/min was used with a 420 s contact time (using high performance injection parameters) followed by a 120 s dissociation phase. Results were analyzed by subtracting the signals of the reference surface from the signals for the protein-bound surfaces and performing a solvent correction. Competitive binding responses were normalized throughout the screen to the percentage of inhibition of the respective small molecule compound. Three independent experiments were performed.
The binding affinity was measured using the surface plasmon resonance assay described above.

[2] = tested on: HEK-293 cells expressing GAPDH and GluR2; experiment: AMPA mediated cell-death assay (CellTox Green Cytotoxicity Assay); format: cell-based; conditions: Homo sapiens, HEK293, AMPA 500 μM, CTZ 100 μM, CellTox Green fluorescence, read-out: Potency, inhibition of AMPA-mediated neurotoxicity (IC50, concentration at which 50% of cell death was prevented)
Experimental: The ability of compounds to inhibit AMPA-mediated neurotoxicity was determined using the CellTox™ Green Cytotoxicity Assay (G8743) kit from Promega. In this assay, GAPDH and GluR2 are expressed in HEK-293 cells. AMPA (500 μM) was added to induce an AMPAR-mediated cell death signalling cascade. This is initiated by the GAPDH-GluR2 complex formation followed by the nuclear translocation of the complex, where it activates the p53-mediated cell death pathway. The presence of a compound which can block dimerization of GAPDH and GluR2 will prevent the nuclear translocation and the cell death and, thus this assay is an effective measure of the ability of a compound to prevent AMPA-mediated neurotoxicity and thus show therapeutic benefit in the treatment of MS.
The assay was performed as per the manufacture's instruction. Briefly, 293 cells stably expressing GluR1 and GluR2VENUS were transfected with pcDNA-RluC-GAPDH. AMPA (500 μM) were added to induce the cell death. CTZ (100 μM) was added to prevent AMPAR desensitization. Candidate molecules were added before the AMPA treatment to test its protective effect. Untreated cells and AMPA treated group were used as negative and positive control respectively. CellTox™ Green Reagent (˜5×) was then added to achieve a final concentration of 1× and cells were incubated at room temperature for 15 minutes (shielded from ambient light). The fluorescence intensity at 485-500 nmEx/520-530 nmEm was then measured and calculated as the percentage value of the positive control. The concentration at which 50% of cell death was prevented (IC50) was determined for each compound.
The potency was measured using the cell death assay described above.

[3] = tested on: EAE mice; experiment: Experimental autoimmune encephalomyelitis (EAE) model for multiple sclerosis; format: in vivo, mice (C57BL/6)
[4] = Human liver microsomal stability assay; format: in vitro ADME; conditions: both sexes, pooled human liver microsomes, pH 7.4; human liver microsomes 0.5 mg/mL, 3 μM compound, NADPH, 37° C., 45 min; read-out: T1/2, human liver microsomal stability
Experimental: (§1) Metabolic stability of 2-pyrrolopyrazoles derivatives was measured by determination of the rate of compound disappearance when incubated in the presence of human or rat liver microsomes. Liver microsomes are prepared from the endoplasmic reticulum of hepatocytes and are the primary source of the most important enzymes (cytochrome P450) involved in drug metabolism. Study of drug stability in the presence of liver microsomes is accepted as a valuable model permitting rapid prediction of in vivo drug stability.
(§2) Human or rat liver microsomes were obtained from a commercial source. Test compounds (3 μM) were incubated with pooled liver microsomes (male and female). Samples were incubated for a 45 minute period and removed at 5 time points and test compounds were analyzed by LC-MS/MS
(§3) Microsomes (final protein concentration 0.5 mg/mL), 0.1 M phosphate buffer pH 7.4, and test compound (final concentration 3 μM; diluted from 10 mM stock solution to give a final DMSO concentration of 0.25%) were incubated at 37° C. prior to the addition of NADPH (final concentration 1 mM) to initiate the reaction. The final incubation volume was 25 μL. A control incubation was included for each compound tested, where 0.1 M phosphate buffer pH 7.4 was added instead of NADPH. The control compounds testosterone and 7-hydroxycoumarin were included in each experiment and all incubations were performed singularly for each compound.
(§4) Each compound was incubated for 0, 5, 15, 30, and 45 minutes. The control (minus NADPH) was incubated for 45 minutes only. The reactions were stopped by the addition of 50 μL methanol containing internal standard at the appropriate time points. The incubation plates were centrifuged at 2500 rpm for 20 minutes at 4° C. to precipitate the protein.
(§5) Following protein precipitation, the sample supernatants were combined in cassettes of up to 4 compounds and analysed using standard LC-MS/MS conditions.
(§6) From a plot of the natural logarithm of the peak area ratio (i.e., the ratio of compound peak area: internal standard peak area) against time, the gradient of the line was determined. Subsequently, half-life and intrinsic clearance were calculated using the equations below: Eliminated rate constant (k)=(−gradient). Half-life (t1/2) (min)=[…]. Intrinsic Clearance (CLint) (μL/min/[…])=(V×0.693)/t1/2. wherein V=Incubation volume (μL/mg microsomal protein).
(§7) Biological half-life values (t1/2) were determined for several 2-pyrrolopyrazoles, as well as the closely-related reference 1-pyrrolopyrazole, using the human liver microsomal stability assay described above.

[5] = Rat liver microsomal stability assay; format: in vitro ADME; conditions: both sexes, pooled rat liver microsomes, pH 7.4; rat liver microsomes 0.5 mg/mL, 3 μM compound, NADPH, 37° C., 45 min; read-out: T1/2, rat liver microsomal stability
Experimental: as §1, §2, §3, §4, §5, §6, §7

With `CN(C)C(=O)c1cncc(N2Cc3cn(Cc4ccc(F)cc4)nc3C2)n1` [Compound 155, 6-(2-(4-Fluorobenzyl)-2,6-dihydropyrrolo[3,4-c]pyrazol-5(4H)-yl)-N,N-dimethylpyrazine-2-carboxamide] the pIC50 [1] was 9.40, the pIC50 [2] was 7.46 and the “mean clinical score compared with the no treatment group” value ([3]; 5 or 10 mg/kg i.p. daily from day 11~12, two-way ANOVA at least P<0.05) was “significantly lower”. The neurological function ([3]; i.p. administration from day 11~12 after immunization (1~2 days after symptoms)) was “greatly improves neurological function”.

In the case of `CN(C)C(=O)c1ccnc(N2Cc3cn(Cc4ccc(F)cc4)nc3C2)n1` [Compound 210, 2-(2-(4-Fluorobenzyl)-2,6-dihydropyrrolo[3,4-c]pyrazol-5(4H)-yl)-N,N-dimethylpyrimidine-4-carboxamide], the pIC50 [1] was 7.48, the pIC50 [2] was 7.09 and the half-life at 3 μM [4] was 749 min.

With `O=C(NC1CCCCC1)c1cccc(N2Cc3cn(Cc4ccc(F)cc4)nc3C2)c1` [Compound 216, N-Cyclohexyl-3-(2-(4-fluorobenzyl)-2,6-dihydropyrrolo[3,4-c]pyrazol-5(4H)-yl)benzamide] the pIC50 [1] was 7.04, the pIC50 [2] was 7.24 and the half-life at 3 μM [4] was over 1000 min.

Compound `CN(C(=O)c1cncc(N2Cc3cn(Cc4ccc(F)cc4)nc3C2)n1)C1CCCC1` [Compound 228, N-Cyclopentyl-6-(2-(4-fluorobenzyl)-2,6-dihydropyrrolo[3,4-c]pyrazol-5(4H)-yl)-N-methylpyrazine-2-carboxamide] has a half-life at 3 μM [5] of under 1 min, a pIC50 [2] of 7.38 and a half-life at 3 μM [4] of 8 min.

Compound `O=C(c1cccc(N2Cc3cn(Cc4ccc(F)cc4)nc3C2)c1)N1CCCCC1` [Compound 242, (3-(2-(4-Fluorobenzyl)-2,6-dihydropyrrolo[3,4-c]pyrazol-5(4H)-yl)phenyl)(piperidin-1-yl)methanone] has a pIC50 [1] of 8.10, a half-life at 3 μM [5] of 14 min and a pIC50 [2] of 7.10.

`CN(C(=O)c1ccnc(N2Cc3cn(Cc4ccc(F)cc4)nc3C2)n1)C1CCCC1` [Compound 226, N-Cyclopentyl-2-(2-(4-fluorobenzyl)-2,6-dihydropyrrolo[3,4-c]pyrazol-5(4H)-yl)-N-methylpyrimidine-4-carboxamide] gave a half-life at 3 μM [5] of under 1 min, a pIC50 [2] of 7.38 and a half-life at 3 μM [4] of 7 min.

With `CN(C(=O)c1ccnc(N2Cc3cn(Cc4ccc(F)cc4)nc3C2)n1)C1CCCCC1` [Compound 230, N-Cyclohexyl-2-(2-(4-fluorobenzyl)-2,6-dihydropyrrolo[3,4-c]pyrazol-5(4H)-yl)-N-methylpyrimidine-4-carboxamide] the half-life at 3 μM [5] was under 1 min and the pIC50 [2] was 7.06.

In the case of `O=C(NC1CCCCC1)c1ccnc(N2Cc3cn(Cc4ccc(F)cc4)nc3C2)n1` [Compound 209, N-Cyclohexyl-2-(2-(4-fluorobenzyl)-2,6-dihydropyrrolo[3,4-c]pyrazol-5(4H)-yl)pyrimidine-4-carboxamide], the pIC50 [1] was 7.00 and the pIC50 [2] was 7.18.

Reference: patent US12398139B2, “Modulators of AMPA receptor signaling” (Centre for Addiction and Mental Health, priority 2019, dated 2025)
